Drawing on patent US5843988A, “Cyclopropachromencarboxylic acid derivatives” (Suntory Limited, priority 1995, dated 1998), this text covers IC50 for ten compounds.

The experiment has as its target T1, rat mGluR1 (metabotropic glutamate receptor 1) (Rattus norvegicus, UniProt P23385).
T1 construct: expressed in transfected cells; host or cells: CHO (Chinese hamster ovary) cells
Briefly: mGluR1 antagonistic effect as assessed with reference to intracellular Ca2+ response in mGluR1 expressing CHO cells (Fura-2 fluorometry). As to conditions: Intracellular Ca2+ release induced by 10 μM glutamic acid. Type of experiment: cell-based. The text has this:
Evaluation Example 1. mGluR1 antagonistic effect as assessed with reference to intracellular Ca^2+ response in mGluR1 expressing CHO cells
Since mGluR1 (metabotropic glutamate receptor 1) induces release of Ca^2+ from intracellular Ca^2+ storage sites via the formation of inositol-1,4,5-triphosphate in the pathway of the intracellular signaling system, it is possible to evaluate the antagonistic activity of the compounds of the invention against mGluR1 with reference to intracellular Ca^2+ response in CHO cells in which recombinant rat mGluR1 gene is transfected.
The present inventors applied this evaluation system to assess the mGluR1 antagonistic activity of the compounds provided by this invention using CHO cells in which rat mGluR1 gene is expressed [S. Nakanishi et al.: Neuron, 8, 757 (1992)]. Intracellular Ca^2+ release induced by 10 μM glutamic acid in the presence of various concentrations of the compounds of the present invention added to culture medium was measured by fluorometry with Fura -2 [H. Sugino et al.: Brain Res., 322,127 (1984)]. The antagonistic effect against the induced intracellular Ca^2+ elevation was thus assessed by comparison with the control response in the absence of the test compounds.

Where [1] appears, read: read-out: 50% inhibitory concentrations (IC50), bound stated.

Each structure is given as a SMILES string. Read-outs that look alike come from different tables or passages of the source.

T1 sequence (P23385 19-1199): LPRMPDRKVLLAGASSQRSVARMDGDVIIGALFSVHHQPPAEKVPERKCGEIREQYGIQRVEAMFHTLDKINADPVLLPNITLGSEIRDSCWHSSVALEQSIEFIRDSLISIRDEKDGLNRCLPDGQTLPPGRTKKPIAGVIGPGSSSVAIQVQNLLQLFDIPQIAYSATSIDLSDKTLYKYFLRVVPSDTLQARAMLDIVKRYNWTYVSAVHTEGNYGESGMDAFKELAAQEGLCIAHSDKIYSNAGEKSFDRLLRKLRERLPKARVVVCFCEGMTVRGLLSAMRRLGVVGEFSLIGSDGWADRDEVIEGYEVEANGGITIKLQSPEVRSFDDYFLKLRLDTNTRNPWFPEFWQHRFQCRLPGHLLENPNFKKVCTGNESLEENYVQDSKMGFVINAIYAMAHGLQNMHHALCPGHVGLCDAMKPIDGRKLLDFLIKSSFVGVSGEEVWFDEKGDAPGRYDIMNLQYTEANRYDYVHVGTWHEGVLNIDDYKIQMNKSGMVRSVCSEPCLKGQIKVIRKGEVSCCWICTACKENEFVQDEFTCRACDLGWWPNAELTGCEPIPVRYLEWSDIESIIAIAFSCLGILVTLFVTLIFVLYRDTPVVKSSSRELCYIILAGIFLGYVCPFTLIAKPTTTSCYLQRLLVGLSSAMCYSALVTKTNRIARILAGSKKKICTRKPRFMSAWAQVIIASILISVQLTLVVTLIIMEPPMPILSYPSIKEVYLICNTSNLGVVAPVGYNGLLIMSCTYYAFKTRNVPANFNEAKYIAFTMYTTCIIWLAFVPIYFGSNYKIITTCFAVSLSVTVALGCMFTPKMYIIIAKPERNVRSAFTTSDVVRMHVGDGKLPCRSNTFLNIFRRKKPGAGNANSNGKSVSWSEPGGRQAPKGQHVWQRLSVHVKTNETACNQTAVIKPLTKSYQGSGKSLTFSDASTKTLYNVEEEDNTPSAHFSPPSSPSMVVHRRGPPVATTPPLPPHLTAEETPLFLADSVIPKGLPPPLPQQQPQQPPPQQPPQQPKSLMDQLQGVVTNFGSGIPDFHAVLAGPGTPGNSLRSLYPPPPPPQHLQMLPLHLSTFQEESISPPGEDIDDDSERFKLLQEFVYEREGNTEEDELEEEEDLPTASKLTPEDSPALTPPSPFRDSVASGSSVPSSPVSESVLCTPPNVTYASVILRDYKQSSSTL

Consider `N[C@H](C(=O)O)c1ccc(C(=O)O)cc1` [(S)-4CPG, reference compound], for which the IC50 (Table 3, read-out: IC50) was 200 µM.

Turning to `CCOC(=O)C12CC1C(=NO)c1ccccc1O2` (stereo not drawn) [Example 32, 1a-ethoxycarbonyl-1a, 7a-dihydro-7(1H)-hydro-xyiminocyclopropa [b]chromen], the IC50 is, setting by setting: (Table 3, read-out: IC50) 23 µM; under setting [1], not above 100 µM.

`CC(C)COC(=O)C12CC1C(=NO)c1ccccc1O2` (stereo not drawn) [Example 34]: the IC50 (Table 3, read-out: IC50) is 20 µM and the IC50 under setting [1] is not above 100 µM.

In the case of `O=C(Nc1ccccc1)C12CC1C(=NO)c1ccccc1O2` (stereo not drawn) [Example 35, 1a-(N-phenyl)carbamoyl-1a, 7a-dihydro-7(1H)-hydroxyiminocyclopropa[b]chromen], the IC50 (Table 3, read-out: IC50) is 3 µM and the IC50 under setting [1] was not above 100 µM.

`CN(C(=O)C12CC1C(=NO)c1ccccc1O2)c1ccccc1` (stereo not drawn) [Example 36, 1a-(N-methyl-N-phenyl)carbamoyl-1a, 7a-dihydro-7(1H)-hydroxyiminocyclopropa[b]chromen]: the IC50 runs as follows: (Table 3, read-out: IC50) 10 µM; under setting [1], not above 100 µM.

As to `COc1ccc(N(C)C(=O)C23CC2C(=NO)c2ccccc2O3)cc1` (stereo not drawn) [Example 41, 1a-(N-4-methoxyphenyl-N-methyl)carbamoyl-1a, 7a-dihydro-7(1H)-hydroxyimino-cyclopropa[b]chromen], the IC50 reads like this: (Table 3, read-out: IC50) 100 µM; under setting [1], not above 100 µM.

For the compound `CN(C(=O)C12CC1C(=NO)c1ccccc1O2)c1ccc(Cl)cc1` (stereo not drawn) [Example 42, 1a-(N-4-chlorophenyl-N-methyl)-carbamoyl-1a, 7a-dihydro-7(1H)-hydroxyiminocyclopropa-[b]chromen], the IC50 by setting is: (Table 3, read-out: IC50) 100 µM; under setting [1], not above 100 µM.

As to `CN(Cc1ccccc1)C(=O)C12CC1C(=NO)c1ccccc1O2` (stereo not drawn) [Example 43, 1a-(N-benzyl-N-methyl)carbamoyl-1a, 7a-dihydro-7(1H)-hydroxyiminocyclopropa[b]chromen], the IC50 by setting is: (Table 3, read-out: IC50) 20 µM; under setting [1], not above 100 µM.

As to `O=C(N1CCN(c2ccc(F)cc2)CC1)C12CC1C(=NO)c1ccccc1O2` (stereo not drawn) [Example 53, 1a-(1-(4-fluorophenyl)-piperazinyl)arbonyl-1a, 7a-dihydro-7(1H)-hydroxyiminocyclopropa[b]chromen], the IC50 reads like this: (Table 3, read-out: IC50) 100 µM; under setting [1], not above 100 µM.

Take `CC(N)(C(=O)O)c1ccc(C(=O)O)cc1` (stereo not drawn) [MCPG, reference compound]: under “Table 3, read-out: IC50”, the IC50 is 700 µM.
